In patent EP1953147A1, “HETEROCYCLIC COMPOUND AND MEDICINAL APPLICATION THEREOF” (priority 2005, dated 2007):

Tested on: ΔG/SEAP/HCV E1E2
Assay: Effect of test substance on cell infection with HCV pseudotype virus (SEAP reporter assay in HepG2 cells)
Format: cell-based
Conditions: Hepatitis C virus

Row | SMILES | IC50 [nM]
1 | COc1cc(OC)cc(-c2nn(-c3cc(N4CC[C@H](O)C4)ccc3C(F)(F)F)c(=O)c3c2CCN3Cc2ccccc2)c1 [Example 102, 1-benzyl-4-(3,5-dimethoxy-phenyl)-6-[5-((S)-3-hydroxy-pyrrolidin-1-yl)-2-trifluoromethyl-phenyl]-1,2,3,6-tetrahydro-pyrrolo[2,3-d]pyridazin-7-one] | < 100
2 | CCOC(=O)N1CCc2c(-c3cc(OC)cc(OC)c3)nn(-c3cc(N4CC[C@H](O)C4)ccc3C(F)(F)F)c(=O)c21 [Example 60, 4-(3,5-dimethoxy-phenyl)-6-[5-((S)-3-hydroxy-pyrrolidin-1-yl)-2-trifluoromethyl-phenyl]-7-oxo-2,3,6,7-tetrahydro-pyrrolo[2,3-d]pyridazine-1-carboxylic acid ethyl ester] | < 100
3 | COc1cc(OC)cc(-c2nn(-c3ccc(N(C)C)cc3C(F)(F)F)c(=O)c3c2CCC3)c1 [Example 108, 4-(3,5-dimethoxy-phenyl)-2-(4-dimethylamino-2-trifluoromethyl-phenyl)-2,5,6,7-tetrahydro-cyclopenta[d]pyridazin-1-one] | 100 to 10000
4 | COc1cc(OC)cc(-c2nn(-c3ccc(Br)cc3C(F)(F)F)c(=O)c3c2CCC3)c1 [Example 106, 2-(4-bromo-2-trifluoromethyl-phenyl)-4-(3,5-dimethoxy-phenyl)-2,5,6,7-tetrahydro-cyclopenta[d]pyridazin-1-one] | 100 to 10000
5 | Cc1cc(C)cc(-c2nn(-c3cc(N4CC[C@H](O)C4)ccc3C(F)(F)F)c(=O)c3c2CCC3)c1 [Example 4, 4-(3,5-dimethyl-phenyl)-2-[5-((S)-3-hydroxy-pyrrolidin-1-yl)-2-trifluoromethyl-phenyl]-2,5,6,7-tetrahydro-cyclopenta[d]pyridazin-1-one] | < 100
6 | COc1cc(C)cc(-c2nn(-c3cc(N4CC[C@H](O)C4)ccc3C(F)(F)F)c(=O)c3c2CCC3)c1 [Example 7, 2-[5-((S)-3-hydroxy-pyrrolidin-1-yl)-2-trifluoromethyl-phenyl]-4-(3-methoxy-5-methyl-phenyl)-2,5,6,7-tetrahydro-cyclopenta[d]pyridazin-1-one] | < 100
7 | COc1cc(OC)cc(-c2nn(-c3cc(OC)ccc3C(F)(F)F)c(=O)c3c2CCC3)c1 [Example 69, 4-(3,5-dimethoxy-phenyl)-2-(5-methoxy-2-trifluoromethyl-phenyl)-2,5,6,7-tetrahydro-cyclopenta[d]pyridazin-1-one] | < 100
8 | COc1cc(OC)cc(-c2nn(-c3ccccc3Cl)c(=O)c3c2CCC3)c1 [Example 86, 2-(2-chloro-phenyl)-4-(3,5-dimethoxy-phenyl)-2,5,6,7-tetrahydro-cyclopenta[d]pyridazin-1-one] | 100 to 10000
9 | Cc1cc(C)cc(-c2nn(-c3cc(-c4cccnn4)ccc3C(F)(F)F)c(=O)c3c2CCC3)c1 [Example 8, 4-(3,5-dimethyl-phenyl)-2-(5-pyridazin-3-yl-2-trifluoromethyl-phenyl)-2,5,6,7-tetrahydro-cyclopenta[d]pyridazin-1-one] | < 100
10 | COc1cc(OC)cc(-c2nn(-c3cc(N4CC[C@H](O)C4)ccc3C(F)(F)F)c(=O)c3c2CCN3CCO)c1 [Example 29, 4-(3,5-dimethoxy-phenyl)-1-(2-hydroxy-ethyl)-6-[5-((S)-3-hydroxy-pyrrolidin-1-yl)-2-trifluoromethylphenyl]-1,2,3,6-tetrahydro-pyrrolo[2,3-d]pyridazin-7-one] | < 100
11 | Cc1cc(-c2cnco2)cc(-c2nn(-c3cc(N4CC[C@H](O)C4)ccc3C(F)(F)F)c(=O)c3c2CCC3)c1 [Example 2, 2-[5-((S)-3-hydroxy-pyrrolidin-1-yl)-2-trifluoromethyl-phenyl]-4-(3-methyl-5-oxazol-5-yl-phenyl)-2,5,6,7-tetrahydro-cyclopenta[d]pyridazin-1-one] | < 100
12 | COc1cccc(-c2nn(-c3cc(N4CC[C@H](O)C4)ccc3C(F)(F)F)c(=O)c3c2CCN3)c1 [Example 43, 6-[5-((S)-3-hydroxy-pyrrolidin-1-yl)-2-trifluoromethyl-phenyl]-4-(3-methoxy-phenyl)-1,2,3,6-tetrahydro-pyrrolo[2,3-d]pyridazin-7-one] | < 100
13 | COc1cc(OC)cc(-c2nn(-c3cc(NC(=O)CO)ccc3C(F)(F)F)c(=O)c3c2CCC3)c1 [Example 83, N-{3-[4-(3,5-dimethoxy-phenyl)-1-oxo-1,5,6,7-tetrahydro-cyclopenta[d]pyridazin-2-yl]-4-trifluoromethyl-phenyl}-2-hydroxy-acetamide] | < 100
14 | COc1cc(C)cc(-c2nn(-c3cc(-c4cccnn4)ccc3C(F)(F)F)c(=O)c3c2CC(C)N3)c1 (centres unmarked) [Example 15, 4-(3-methoxy-5-methyl-phenyl)-2-methyl-6-(5-pyridazin-3-yl-2-trifluoromethyl-phenyl)-1,2,3,6-tetrahydro-pyrrolo[2,3-d]pyridazin-7-one] | < 100
15 | COc1cc(OC)cc(-c2nn(-c3cc(N4CC[C@H](O)C4)ccc3C(F)(F)F)c(=O)c3c2CCN3CC(=O)NCCCN2CCN(CCCNC(C)=O)CC2)c1 [Example 56, N-{3-[4-(3-acetylamino-propyl)-piperazin-1-yl]-propyl}-2-{4-(3,5-dimethoxy-phenyl)-6-[5-((S)-3-hydroxy-pyrrolidin-1-yl)-2-trifluoromethyl-phenyl]-7-oxo-2,3,6,7-tetrahydro-pyrrolo[2,3-d]pyridazin-1-yl}-acetamide] | 100 to 10000
16 | O=c1c2c(c(-c3ccccc3Br)nn1-c1cc(N3CC[C@H](O)C3)ccc1C(F)(F)F)CCC2 [Example 104, 4-(2-bromo-phenyl)-2-[5-((S)-3-hydroxy-pyrrolidin-1-yl)-2-trifluoromethyl-phenyl]-2,5,6,7-tetrahydro-cyclopenta[d]pyridazin-1-one] | 100 to 10000
17 | O=c1c2c(c(-c3cccc(C(F)(F)F)c3)nn1-c1cc(N3CC[C@H](O)C3)ccc1C(F)(F)F)CCC2 [Example 74, 2-[5-((S)-3-hydroxy-pyrrolidin-1-yl)-2-trifluoromethyl-phenyl]-4-(3-trifluoromethyl-phenyl)-2,5,6,7-tetrahydro-cyclopenta[d]pyridazin-1-one] | < 100
18 | COc1cc(OC)cc(-c2nn(-c3cc(N4CC[C@H](O)C4)ccc3S(C)(=O)=O)c(=O)c3c2CCC3)c1 [Example 38, 4-(3,5-dimethoxy-phenyl)-2-[5-((S)-3-hydroxy-pyrrolidin-1-yl)-2-methanesulfonyl-phenyl]-2,5,6,7-tetrahydro-cyclopenta[d]pyridazin-1-one] | < 100
19 | COc1cc(OC)cc(-c2nn(-c3cc(N4CC[C@H](O)C4)ccc3N(C)C)c(=O)c3c2CCC3)c1 [Example 1-6, 4-(3,5-dimethoxy-phenyl)-2-[2-dimethylamino-5-((S)-3-hydroxy-pyrrolidin-1-yl)-phenyl]-2,5,6,7-tetrahydro-cyclopenta[d]pyridazin-1-one] | 100 to 10000
20 | COc1cc(OC)cc(-c2nn(-c3cc(N4CC[C@@H](O)C4)ccc3C(F)(F)F)c(=O)c3c2CCN3)c1 [Example 24, 4-(3,5-dimethoxy-phenyl)-6-[5-((R)-3-hydroxy-pyrrolidin-1-yl)-2-trifluoromethyl-phenyl]-1,2,3,6-tetrahydro-pyrrolo[2,3-d]pyridazin-7-one] | < 100
21 | COc1cc(OC)cc(-c2nn(-c3cc(N4CC(CO)C4)ccc3C(F)(F)F)c(=O)c3c2CCCN3CCO)c1 [Example 1-40, 5-(3,5-dimethoxy-phenyl)-1-(2-hydroxy-ethyl)-7-[5-(3-hydroxymethyl-azetidin-1-yl)-2-trifluoromethylphenyl]-1,3,4,7-tetrahydro-2H-pyrido[2,3-d]pyridazin-8-one] | < 100
22 | Cc1cc(C)cc(-c2nn(-c3cc(-c4cccnn4)ccc3C(F)(F)F)c(=O)c3c2CCN3)c1 [Example 10, 4-(3,5-dimethyl-phenyl)-6-(5-pyridazin-3-yl-2-trifluoromethyl-phenyl)-1,2,3,6-tetrahydro-pyrrolo[2,3-d]pyridazin-7-one] | < 100
23 | COC(=O)CN1CCc2c(-c3cc(OC)cc(OC)c3)nn(-c3cc(N4CC[C@H](O)C4)ccc3C(F)(F)F)c(=O)c21 [Example 26, {4-(3,5-dimethoxy-phenyl)-6-[5-((S)-3-hydroxy-pyrrolidin-1-yl)-2-trifluoromethyl-phenyl]-7-oxo-2,3,6,7-tetrahydro-pyrrolo[2,3-d]pyridazin-1-yl}-acetic acid methyl ester] | < 100
24 | O=c1c2c(c(C3=CCCC3)nn1-c1cc(N3CC[C@H](O)C3)ccc1C(F)(F)F)CCC2 [Example 1-18, 4-(cyclopent-1-enyl)-2-[5-((S)-3-hydroxy-pyrrolidin-1-yl)-2-trifluoromethyl-phenyl]-2,5,6,7-tetrahydro-cyclopenta[d]pyridazin-1-one] | 100 to 10000
25 | COc1cc(O)cc(-c2nn(-c3cc(N4CC(CO)C4)ccc3C(F)(F)F)c(=O)c3c2CCN3CCO)c1 [Example 1-44, 1-(2-hydroxy-ethyl)-4-(3-hydroxy-5-methoxyphenyl)-6-[5-(3-hydroxymethyl-azetidin-1-yl)-2-trifluoromethyl-phenyl]-1,2,3,6-tetrahydro-pyrrolo[2,3-d]pyridazin-7-one] | < 100
26 | O=c1c2c(c(-c3cccc(F)c3)nn1-c1cc(N3CC[C@H](O)C3)ccc1C(F)(F)F)CCC2 [Example 65, 4-(3-fluoro-phenyl)-2-[5-((S)-3-hydroxy-pyrrolidin-1-yl)-2-trifluoromethyl-phenyl]-2,5,6,7-tetrahydro-cyclopenta[d]pyridazin-1-one] | < 100
27 | O=c1c2c(c(-c3ccc(F)cc3)nn1-c1cc(N3CC[C@H](O)C3)ccc1C(F)(F)F)CCC2 [Example 76, 4-(4-fluoro-phenyl)-2-[5-((S)-3-hydroxy-pyrrolidin-1-yl)-2-trifluoromethyl-phenyl]-2,5,6,7-tetrahydro-cyclopenta[d]pyridazin-1-one] | < 100
28 | COc1cc(OC)cc(-c2nn(-c3cc(N(C)CCCO)ccc3C(F)(F)F)c(=O)c3c2CCC3)c1 [Example 145, 4-(3,5-dimethoxy-phenyl)-2-{5-[(3-hydroxypropyl)-methyl-amino]-2-trifluoromethyl-phenyl}-2,5,6,7-tetrahydro-cyclopenta[d]pyridazin-1-one] | < 100
29 | COc1cc(OC)cc(-c2nn(-c3cc(NCCNS(C)(=O)=O)ccc3C(F)(F)F)c(=O)c3c2CCC3)c1 [Example 137, N-(2-{3-[4-(3,5-dimethoxy-phenyl)-1-oxo-1,5,6,7-tetrahydro-cyclopenta[d]pyridazin-2-yl]-4-trifluoromethyl-phenylamino}-ethyl)-methanesulfonamide] | < 100
